Experimental data reported in PubChem BioAssay (NCI).
Where “and” joins values, the source holds several entries; their conditions need not be identical. Equal entries are not always repeated.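 Briefly, cells in 96-well plates were exposed to five compound concentrations for 48 h, and endpoints were estimated by linear interpolation. GI50 marks 50% less growth. TGI: total growth inhibition.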

Assays:
Test in all cases: inhibition of tumour cell growth, NCI panel, 48 h
[1] = test system: MALME-3M melanoma
[2] = test system: HCC-2998 colon
[3] = test system: NCI-H522 lung
[4] = test system: DLD-1 colon
[5] = test system: SK-MEL-28 melanoma
[6] = test system: MDA-MB-435
[7] = test system: MDA-MB-231 breast
[8] = test system: BT-549 breast
[9] = test system: MCF7 breast

SMILES | TGI [1] | GI50 [2] | TGI [2] | TGI [3] | TGI [4] | TGI [5] | TGI [6] | TGI [7] | TGI [8] | TGI [9] | GI50 [3] | GI50 [4] | GI50 [5] | GI50 [6] | GI50 [1] | GI50 [7] | GI50 [8] | GI50 [9]
CC1(C)OC2OC(COC(=O)C(c3ccccc3)c3ccccc3)C3OC(C)(C)OC3C2O1 (centres undefined) | > 100 µM | > 100 µM | > 100 µM | > 100 µM | > 100 µM | > 100 µM | – | – | – | – | – | – | – | – | – | – | – | –
CC1CCC2c3c([nH]c4ccccc34)C3C(=O)N(c4ccccc4)C(=O)C3C2C1 (centres undefined) | 215 µM | – | > 250 µM | > 250 µM | > 250 µM | > 250 µM | – | – | – | – | – | – | – | – | – | – | – | –
CC1=C(C(=O)CC(=O)C(=O)Nc2ccccc2C)Sc2ccccc2N1 | > 100 µM | – | > 100 µM | > 100 µM | > 67.9 µM | > 100 µM | – | – | – | – | – | – | – | – | – | – | – | –
O=C1c2ccoc2C(=O)c2oc(=O)ccc21 | 7.84 µM | – | > 59 µM | 4.18 µM | 36.4 µM | 11.5 µM | – | – | – | – | – | – | – | – | – | – | – | –
CCOC(=O)COc1cccc2occc(=O)c12 | > 100 µM | – | > 100 µM | > 100 µM | > 100 µM | > 100 µM | – | – | – | – | – | – | – | – | – | – | – | –
O=C(CCC(=O)C1Cc2ccccc2C1=O)Nc1cccc(C(F)(F)F)c1 (centres undefined) | > 100 µM | – | > 100 µM | – | > 100 µM | – | – | – | – | – | – | – | – | – | – | – | – | –
CC(C)(C)c1cc(C(OCCl)(C(F)(F)F)C(F)(F)F)c2c(c1)C(C(F)(F)F)(C(F)(F)F)OC21c2ccccc2C(=O)c2ccccc21 | > 100 µM | – | > 100 µM | > 100 µM | > 100 µM | > 100 µM | – | – | – | – | – | – | – | – | – | – | – | –
Nc1nc(-c2ccccc2)cc(-c2cc(Cl)ccc2O)n1 | > 100 µM | – | > 100 µM | 99.7 µM | > 100 µM | > 100 µM | – | – | – | – | – | – | – | – | – | – | – | –
O=c1c2cccc3cccc(c4n1CCCN=4)c32 | > 100 µM | – | – | > 100 µM | > 100 µM | > 100 µM | – | – | – | – | – | – | – | – | – | – | – | –
COc1ccc2c3c(c(C(=O)O)oc13)C(CCC(=O)O)CC2 (centres undefined) | – | – | > 100 µM | – | > 100 µM | > 100 µM | – | – | – | – | – | – | – | – | – | – | – | –
CN(C)CCNC(=O)c1cccc2cc3ccc4ccccc4c3nc12 | 0.76 µM | – | 0.252 µM | 0.28 µM | 0.817 µM | 0.593 µM | – | – | – | – | – | – | – | – | – | – | – | –
Nc1c(C(=O)Nc2ccccc2O)[n+]([O-])c2ccccc2[n+]1[O-] | > 100 µM | – | – | > 100 µM | > 100 µM | > 100 µM | – | – | – | – | – | – | – | – | – | – | – | –
O=S(=O)(Cc1ccccc1)SCc1ccccc1 | 73.6 µM | – | 55.2 µM | 25.2 µM | 21.9 µM | 97.2 µM | – | – | – | – | – | – | – | – | – | – | – | –
C1CCN2CC3CONC3C2C1 (centres undefined) | > 100 µM | – | > 100 µM | > 100 µM | > 100 µM | > 100 µM | – | – | – | – | – | – | – | – | – | – | – | –
Cn1cc(NC(=O)c2cc(NC(=O)CCCCCCCC(=O)Nc3cc(C(=O)Nc4cc(C(=O)NCCC(=N)N)n(C)c4)n(C)c3)cn2C)cc1C(=O)NCCC(=N)N | 20.1 µM | – | 30.2 µM | – | > 100 µM | 26.3 µM | – | – | – | – | – | – | – | – | – | – | – | –
Cc1c(C)c2ccc(OC(C)C(=O)O)cc2oc1=O (centres undefined) | > 100 µM | – | > 100 µM | > 100 µM | > 100 µM | > 100 µM | – | – | – | – | – | – | – | – | – | – | – | –
NNC(=O)N/N=C1\CNC(=O)C(=O)C1c1nc2ccccc2s1 (centres undefined) | > 100 µM | – | > 100 µM | > 100 µM | > 100 µM | > 100 µM | – | – | – | – | – | – | – | – | – | – | – | –
Nc1c(-c2nc3ccccc3s2)[n+]([O-])c2ccccc2[n+]1[O-] | 91.7 µM | – | > 100 µM | 45.8 µM | > 100 µM | 61.5 µM | – | – | – | – | – | – | – | – | – | – | – | –
Cc1cc2c(cc1C)[n+](=O)c(C(=O)/C=C/c1ccccc1[N+](=O)[O-])c(C)n2[O-] | > 96.7 µM | – | > 100 µM | 57.6 µM | > 100 µM | > 100 µM | > 100 µM | > 100 µM | > 100 µM | > 46.4 µM | – | – | – | – | – | – | – | –
CC1(C)CC(O)CC(C)(C)N1.CC1(C)CC(O)CC(C)(C)N1.CC1(C)CC(O)CC(C)(C)N1.CC1(C)CC(O)CC(C)(C)N1.Cl.[Ti] | – | > 100 µM | > 100 µM | > 100 µM | > 100 µM | > 100 µM | – | – | – | – | > 100 µM | > 100 µM | > 100 µM | – | – | – | – | –
Nc1ncnc2sc(Nc3ccccc3)nc12 | > 100 µM | – | > 100 µM | > 100 µM | > 100 µM | > 100 µM | – | – | – | – | – | – | – | – | – | – | – | –
COc1ccc(C(=O)/C=C/c2ccc(OCc3ccccc3)c(OC)c2)cc1OC | > 100 µM | 3.22 µM | 28 µM | 6.54 µM | – | > 100 µM | > 100 µM | > 100 µM | 8.11 µM | > 100 µM | 2.34 µM | – | 17.3 µM | 2.97 µM | 12.7 µM | 3.7 µM | 2.79 µM | 3.02 µM
Cc1nn2c(-c3nc4cc(Cl)c(Cl)cc4[nH]3)c(-c3ccc(F)cc3)nc2s1 | 15 µM | > 100 µM | > 100 µM | 55.8 µM | – | > 100 µM | > 100 µM | 3.74 µM | > 100 µM | > 100 µM | 6.35 µM | – | 7.4 µM | 4.65 µM | 3.23 µM | 1.25 µM | 8.57 µM | 13.6 µM
CC(=O)c1c(O)c2c([nH]c1=O)CCCC2 | > 100 µM | – | 53.4 µM | – | > 100 µM | > 100 µM | – | – | – | – | – | – | – | – | – | – | – | –
CC1=NN(c2nc(N)nc(/C=C\c3ccccc3)n2)C(C)(C)C1 | 29.4 µM | 11.9 µM | 26.1 µM | 13.5 µM | – | 22.3 µM | 7.13 µM | 22.5 µM | 19.1 µM | 25.5 µM | 3.14 µM | – | 9.41 µM | 1.97 µM | 10.7 µM | 6.46 µM | 5.09 µM | 8 µM
COc1cc2c(cc1OC)C(SC)C(=O)N(Cc1cccc(OC)c1OC)CC2 (centres undefined) | > 66.6 µM | – | 29.1 µM | 3.07 µM | > 100 µM | > 42.3 µM | 8.36 µM | > 100 µM | 33.2 µM | > 42.6 µM | – | – | – | – | – | – | – | –
Oc1c(I)cc(Cl)c2cccnc12 | 21.6 µM and 46.5 µM | 5.55 µM and 12.7 µM | 36 µM and 59.4 µM | 30.2 µM and 36.4 µM | – | > 100 µM | > 100 µM | 35.2 µM and 12.8 µM | 8.99 µM and 65.3 µM | 41.3 µM and > 100 µM | 3.93 µM and 14.5 µM | – | 3.75 µM and 6.69 µM | 4.2 µM and 32.8 µM | 3.97 µM and 16.5 µM | 3.54 µM and 2.7 µM | 3.27 µM and 23.1 µM | 3.24 µM and 6.36 µM
Oc1ccc(-c2[nH]c3ccccc3c2-c2nc3ccccc3o2)cc1 | 28.3 µM | 2.66 µM | 7 µM | 9.65 µM | – | 17.9 µM | 8.74 µM | 5.64 µM | 18.8 µM | 10.5 µM | 2.83 µM | – | 4.83 µM | 2.26 µM | 7.47 µM | 1.47 µM | 5.41 µM | 2.83 µM
O=c1[nH]c(=O)n(C2CC(O)C(O)C(CO)O2)cc1F (centres undefined) | > 100 µM | – | > 100 µM | > 100 µM | > 100 µM | > 100 µM | – | – | – | – | – | – | – | – | – | – | – | –
